“Also recorded” adds a separate entry of the source.
What was measured:
[1] = Size exclusion chromatography of freshly dissolved Aβ1-42 peptides (oligomer size distribution); assay type: physicochemical; details: freshly dissolved peptide 1 mg/ml, Superose 12 column, 1×PBS
Protocol: In order to discriminate the various oligomeric forms of Aβ wildtype and mutant peptides, a size exclusion chromatography was performed. Therefore, a Superose 12 column (Amersham Bioscience) was equilibrated with 1×PBS (137 mM NaCl, 2.7 mM KCl, 10 mM Na2HPO4, 2 mM KH2PO4) under conditions recommended by the manufacturer. Thereafter 1 mg peptide was monomerized with 50 μl concentrated formic acid and evaporated. Peptides were solubilized in H2O containing 0.125% NH3 to a final concentration of 1 mg/ml.
A volume of 500 μl was centrifuged at maximal speed for 10 minutes and loaded on the column with a flow rate of 0.5 ml/min. For determination of the peptide concentration, fractions were tested with Bradford-, BCA-assay and dot blot analysis. The collected fractions were immediately applied for further analysis.
In this study it was investigated to what extent the GxxxG motif effects the aggregation of Aβ1-42 peptides. Aβ1-42 peptides and the oligomers were separated by use of SEC.

[2] = system: primary hippocampal rat neurons; assay: Toxicity test (MultiTox-Fluor) with primary hippocampal rat neurons; assay type: cell-based; details: normalized peptide concentration, 48 h
Protocol: Hippocampi from P0-P1 Wistar rat pups were used for primary neuronal dissociated cultures. Tissue was dissected in HBSS containing Ca^2+ and Mg^2+ and incubated with an enzyme solution containing 1 mM CaCl2, 0.5 mM EDTA Ph 8.0, 2 mg/ml Cystein and 200-250 units papain (Worthington) in BME for 60 min at 37° C. Supernatant was removed and cells were incubated in inactivation solution (2.5 mg/ml BSA, 2.5 mg/ml Trypsin inhibitor (both Sigma) and 10% FCS in BME) for 5 min at. RT. Tissue clumps were dissociated by repeated passage through 1 ml pipettes. Cells were centrifuged for 10 min at 12000 rpm, 4° C. and resuspended in Neurobasal A medium supplemented with 2% B27, 2 mM Glutamax and 0.2% Penicillin/Streptomycin (all Gibco). Neurons were cultured on glia cell feeder layers in 96 well plates with 5×10^3 cells in 100 μl medium. For feeder layer cultures rat P0-P1 cortices were prepared as described above and cultured at a density of 1×10^6 cells in a T75 flask for at least one week in BME medium supplemented with 10% FCS, 5 mM glucose, 1 mM Glutamax, 10 mM Hepes, 2.5 μg/ml insulin, 0.2% Penicillin/Streptomycin. Cells were trypsinized and 2×10^3 cells per well were seeded in 96 wells plates four days before neurons were added.
After ten days of incubation neuronal cultures were treated with Aβ1-42 freshly dissolved in H2O or with SEC fractions for another 48 h. Neuronal viability was detected by using MultiTox-Fluor Multiplex Cytotxicity assay (Promega) as recommended by the producer.
Cells treated with buffer only were set as non-toxic.

[3] = system: SH-SY5Y cells (human neuroblastoma cells); assay: Toxicity test (MTT) with human neuroblastoma cells; assay type: cell-based; details: 10 μM peptide or SEC fractions, 12 h
Protocol: SH—SY5Y cells were routinely cultured in DMEM/Ham'sF12 medium (PAA) supplemented with 10% (v/v) bovine calf serum, 2 mM glutamine, 0.1 mM non-essential amino acids and 0.5 mM sodium pyruvate in a 5% CO2 humidified atmosphere at 37° C.
Cells were plated at a density of 1.000 cells per well in 100 μl of fresh medium on 96-well plates. After 48 h medium was replaced by DMEM/Ham's F12 with 100 Uml^−1 penicillin and 10 μg streptomycin including 10 μM peptide, freshly dissolved in H2O containing 0.125% NH3 or fractions received by size exclusion chromatography. Probe and control were incubated for 12 h. Cell mediated reduction of 3-(4,5-dimethylthiazol-2-yl)-2,5-diphenyltetrazolium bromide (MTT) was used to monitor Aβ toxicity by addition of 10 μl of a 5 mgml^−1 MTT stock solution and incubation for further 1-2 h. Before measuring the absorbance of blue formazan at 562 nm using an automatic micro plate reader, cells were lysed with 50 μl DMSO for 10 minutes at room temperature.
The toxic effects of various oligomers on human neuroblastoma cells was determined by use of the MTT test allowing to quantify the toxicity.

[4] = system: acute hippocampal rat brain sections or slices (area CA1 fEPSPs); assay: Long term potentiation (LTP) of acute hippocampal rat brain slices; details: slices incubated with 500 nM peptide 20 min prior to tetanisation
Protocol: Hippocampal slices were prepared from 3-6 week old Wistar rats. Rats were decapitated under ether anesthesia. The brain was removed quickly and sectioned into 300 μm thick slices using a vibroslicer (Leica). The slices were maintained at room temperature in a holding chamber containing oxygenated artificial cerebrospinal fluid (ACSF; 129 mM NaCl, 1 mM NaH2PO4, 10 mM Glucose, 1.8 mM MgSO4, 1.6 mM CaCl2, 3 mM KCl, NaHCO3 21 mM). (Ringer: 119 mM NaCl, 1 mM NaH2PO4, 10 mM Glucose, 1.3 mM MgSO4, 2.5 mM CaCl2, 2.5 mM KCl, NaHCO3 26 mM) Ph 7.2-7.4 Osmolarität 0.28-0.31 Osmol/kg.
After at least 1 h equilibration, slices were transferred into submerged recording chamber and continuously perfuse with room temperature oxygenated ACSF at 3 ml/min throughout the experiments. […] Peptide was not washed during the experiment.
Field excitatory postsynaptic potentials (fEPSPs) were recorded of stratum radiatum area CA1 evoked by Schaffer collateral stimulation with ACSF filled electrodes. Two independent pathways were measured whereas two stimulating electrodes lay parallel to each other.
Baseline responses were collected using test pulses that yield 30-40% of the maximal fEPSP slope. LTP was induced by Theta brust stimulation (TBS) of one of the two pathways. The inter-theta burst stimulation interval was 20 sec and four TBSs were applied to induce LTP. TBS consisted of 10 bursts delivered at 5 Hz. Each burst consisted of four pulses delivered at 100 Hz with a pulse-duration of 0.2 msec. (Evers M., Salmen B., Schachner M., 2002 J. Neuroscience)
The amount of LTP was described as percent changes of (EPSP slopes after TBS normalized to baseline values with an additional subtraction of the second, unstimulated pathway. Slopes were analysed using IGOR program.
In order to assay whether Aβ oligomers show an effect on learning and commemoration LTP (long term potentiation) of acute hippocampal sections of rat brains was determined. Several recent publications report on the inhibition of LTP by Aβ1-42. This effect can be equated with cognitive deficiencies observed for AD patients. In order to further improve these performance tests and to minimize possible side effects of the peptides on the general network plasticity of the sections, two independent neuronal pathways were assayed. Whereas the first pathway was stimulated for inducing LTP, the second one was assayed unstimulated as a control. It could be confirmed that Aβ peptides inhibit LTP.

With “Aβ1-42 wt: wild type amyloid beta 1-42 peptide containing the G29xxxG33 motif [reference compound]” the “oligomer size distribution / aggregation by SEC” value [1] was “immediately aggregates to 4- and 6-mers”, the “oligomer size distribution / aggregation by SEC” value ([1]; listed as Aβ1-42) was 4- to 6mers and the “toxic effect (Multi-tox)” value [2] was “strong toxic effect”. The “toxic effect (MTT)” value [3] was “strong toxic effect” and the “LTP induction after theta burst stimulation” value (“LTP induction” below) [4] was “no LTP is induced”.

For “Aβ1-42G33A tetramers: tetramers of the Aβ1-42G33A peptide”, the “toxic effect (MTT)” value [3] was “no toxic effects were observed”, the “LTP induction” value [4] was “correspond to the results obtained for Aβ1-42G331” and the “LTP induction” value ([4]; listed as tetramers of the Aβ1-42G33A peptide) was “LTP could be induced”.

With “Aβ1-42G331: Aβ1-42 peptide with glycine at position 33 replaced by isoleucine” the “LTP induction” value [4] was “induced LTP shows the same value as the control; also recorded: LTP could be induced”.

With “Aβ1-42G29/33A: Aβ1-42 double mutant G29/33A” the “oligomer size distribution / aggregation by SEC” value [1] was “Most of the oligomers have a low MW, but large amounts of oligomers having a higher MW are already visible”, the “toxic effect (Multi-tox)” value [2] was “weak toxicity” and the “toxic effect (MTT)” value [3] was “only weak toxicity”.

In the case of “Aβ1-42 tetramers: tetramers (SEC fraction) of wild type Aβ1-42 peptide [reference compound]”, the “toxic effect (Multi-tox)” value [2] is reported as “highest toxicity”, the “toxic effect (MTT)” value [3] is reported as “highest toxicity” and the “LTP induction” value [4] is reported as “cause a measurable loss of cognitive performance”.

With “Aβ1-42G29A: Aβ1-42 peptide with mutation at position 29 (G to A)” the “toxic effect (Multi-tox)” value [2] was “strong toxic effect” and the “toxic effect (MTT)” value [3] was “strong toxic effect”.

For “Aβ1-42G33A: Aβ1-42 peptide with glycine at position 33 replaced by alanine”, the “oligomer size distribution / aggregation by SEC” value [1] was “shift to oligomers with a higher MW” and the “oligomer size distribution / aggregation by SEC” value ([1]; listed as G33A) was “minor amounts of tetramers are still detectable”.
